# Data from patent US9388226B2, “Peptides modulating the activity of macrophages, useable for the treatment of rheumatoid arthritis” (Universite Paul Sabatier, priority 2006, dated 2016).
# Non-standard residues stand in square brackets, D forms with d. No end group written: not given here. Cit = NC(=O)NCCC[C@H](N)C(=O)O
# What was measured:
# [1] = tested on: ACPAs in sera from patients suffering from RA; test: Reactivity of fibrin-derived citrullinated peptides with sera from RA patients having ACPAs; type: binding, human; settings: 20 sera from RA patients having detectable ACPAs
# Text: Among these peptides, those which bear immunodominant epitopes (recognized by a large number of sera from patients suffering from RA) are given in table 2. The 20 sera tested correspond to a series originating from patients suffering from RA having ACPAs detectable by means of multiple tests for detecting these autoantibodies and which, taken as a whole, make it possible to represent the heterogeneity of the specificity profiles encountered in the patients.
# [2] = tested on: ACPA binding to citrullinated human fibrinogen; test: ELISA competition assay: inhibition of the reactivity of IgG ACPA+ with respect to citrullinated fibrinogen; settings: IgG ACPA+ 16 μg/ml; competitor 0.006 to 1.56 mg/ml added 2 h before ELISA; FIG. 2
# Protocol: 96-well microtitration plates (MaxiSorp, Nunc, VWR International, Fontenay sous Bois, France) are coated with citrullinated human fibrinogen (prepared as indicated in example 1) at a rate of 100 μl/well of a solution at 5 μg/ml in PBS, pH 7.4, overnight at 4° C. The plates are then saturated with a solution of PBS containing 2% of BSA (PBS-2% BSA) (180 μl/well). After this step, the IgG ACPA+ (prepared as indicated in example 1), diluted beforehand to 16 μg/ml in PBS-2% BSA in the presence or absence of increasing amounts of the competitor peptides α36-50cit38, 42 and/or β60-74cit60, 72, 74 (each at a concentration ranging from 0.006 to 1.56 mg/ml) added 2 h before the ELISA assay, are added. The concentration used for the IgG ACPA+ was chosen because it makes it possible to obtain an OD of between 1 and 1.5 in the absence of competitor peptide. Citrullinated or noncitrullinated fibrinogen (0.0002 to 1.56 mg/ml) and the noncitrullinated forms of the α36-50cit38, 42 and β60-74cit60, 72, 74 peptides (respectively referred to as α36-50 and β60-74) are used as control. The ACPA binding is then detected with peroxidase-labeled anti-human IgG goat IgGs (SouthernBiotech, Birmingham, Ala.) diluted to 1/9000 in PBS-2% BSA. All the incubations are carried out for 1 h at 4° C. and are followed by washes in PBS-0.1% Tween 20.
# The results of this ELISA competition assay are illustrated in FIG. 2. The data are representative of 3 experiments carried out with two different preparations of IgG ACPA+. The results are expressed as degree of inhibition of the reactivity obtained in the absence of competitor peptide.
# human macrophages = test: Inhibition of the stimulation of human macrophages by ICs associating ACPAs and citrullinated fibrinogen, TNF-α in supernatants; type: cell-based; settings: IgG ACPA+ 1.13 mg/ml; for TNFα level: citrullinated fibrinogen plates
# Protocol: The reconstitution of ICs associating ACPAs and citrullinated fibrinogen is carried out by coating flat-bottomed 96-well culture plates (Nunclon delta, Nunc, Roskilde, Denmark), under sterile conditions, with human citrullinated fibrinogen at 10 μg/ml, added at a rate of 50 μl/well and incubated overnight at 4° C. The plates are subsequently saturated in PBS, pH 7.4, 2% BSA for 1 hour at 4° C. (180 μl/well). After 3 washes in PBS, pH 7.4, 0.1% Tween-20, the wells are incubated for 2 hours at 4° C. with 100 μl of IgG ACPA+ at various concentrations (ranging from 9 to 0.28 mg/ml) diluted in PBS containing 2% BSA and 2M NaCl. Negative controls are made up in the same way, using either noncitrullinated human fibrinogen as antigen coated at the bottom of the plate, or control IgGs as antibodies. Wells coated only with citrullinated or noncitrullinated human fibrinogen and saturated in PBS, pH 7.4, 2% BSA are also used as negative controls.
# After 3 washes in PBS, pH 7.4, 0.1% Tween-20, then 3 washes in PBS, the macrophages are added at a rate of 50000 viable cells/well in a volume of 200 μl. After incubation for 24 hours at 37° C. under an atmosphere containing 5% CO2, the supernatants are recovered (160 μl/well) and are rapidly frozen at −20° C. until they are analyzed. The negative control for activation is carried out using macrophages in macrophage-SFM medium alone. Macrophages placed on aggregated IgGs immobilized at the bottom of the culture plates by passive adsorption (at a rate of 100 μl of a solution at 5 μg/ml per well), or placed in the presence of bacterial lipopolysaccharide (LPS, Escherichia coli 0.55:B5 at a final concentration of 0.5 μg/ml; Sigma-Aldrich Chimie), are used as controls for the ability of the macrophages to respond to a stimulus inducing TNF-α synthesis.
# An ELISA assay kit for human TNF-α, comprising a capture antibody, a detection antibody and recombinant human TNF-α for making up a calibration range of 7.8 to 500 pg/ml, was used to assay this cytokine in the culture supernatants (Human TNF-alpha BD OptEIA™ ELISA et, BD Biosciences Pharmingen, Pont-de-Claix, France).
# The preparation and the stimulation of the macrophages are carried out exactly under the conditions described in example 1, except for the fact that the reconstitution of ICs is carried out with IgG ACPA+ diluted to 1.13 mg/ml in PBS containing 2M of NaCl and 2% of BSA in the presence or absence of the competitor peptide β60-74cit60, 72, 74 at two concentrations (0.8 and 4 mg/ml) added 2 h before the incubation with the citrullinated fibrinogen immobilized at the bottom of the culture plates. Competitions with citrullinated or noncitrullinated fibrinogen (0.4 mg/ml) and also with the noncitrullinated peptide β60-74 (0.8 and 4 mg/ml), are also carried out as control.
substance,measurement,setting,value
"VDIDIKIXSCXGSCS (VDIDIKI[Cit]SC[Cit]GSCS; cysteine pairing not given here) [α171-185cit178, 181, fibrinogen α-chain derived citrullinated peptide, X = citrullyl residue]",NUMBER OF REACTIVE SERA OUT OF THE 20 TESTED,[1],9
"GPXVVEXHQSACKDS (GP[Cit]VVE[Cit]HQSACKDS) [α36-50cit38, 42, fibrinogen α-chain derived citrullinated peptide, X = citrullyl residue]",NUMBER OF REACTIVE SERA OUT OF THE 20 TESTED,[1],12
same,"percentage inhibition of the ACPA binding to the citrullinated fibrinogen, plateau value",[2],approximately 15%
"SGIGTLDGFXHXHPD (SGIGTLDGF[Cit]H[Cit]HPD) [α501-515cit510, 512, fibrinogen α-chain derived citrullinated peptide, X = citrullyl residue]",NUMBER OF REACTIVE SERA OUT OF THE 20 TESTED,[1],9
citrullinated fibrinogen: purified human fibrinogen incubated with rabbit skeletal muscle peptidylarginine deiminase,"percentage inhibition of the ACPA binding to the citrullinated fibrinogen, plateau value",[2],approximately 80%
same,TNFα level,human macrophages; fibrinogen competitor 0.4 mg/ml,approximately 20 pg/ml
"XPAPPPISGGGYXAX ([Cit]PAPPPISGGGY[Cit]A[Cit]-NH2) [β60-74cit60, 72, 74, fibrinogen β-chain derived citrullinated peptide, X = citrullyl residue]",NUMBER OF REACTIVE SERA OUT OF THE 20 TESTED,[1],14
same,"percentage inhibition of the ACPA binding to the citrullinated fibrinogen, plateau value",[2],approximately 60%
same,TNFα level,human macrophages; competitor peptide 0.8 mg/ml,approximately 40 pg/ml
same,TNFα level,human macrophages; competitor peptide 4 mg/ml,less than 20 pg/ml
same,effect on TNF-α production in response to the ICs (in words),human macrophages; competitor 0.8 and 4 mg/ml (peptide),dose-dependent inhibition
"XGHAKSXPVXGIHTS ([Cit]GHAKS[Cit]PV[Cit]GIHTS) [α621-635cit621, 627, 630, fibrinogen α-chain derived citrullinated peptide, X = citrullyl residue]",NUMBER OF REACTIVE SERA OUT OF THE 20 TESTED,[1],10
